Where two headings read alike, the source gives them in different places.
Columns and labels:
Assay type in all cases: cell-based
[1] = system: CCRF-CEM; test: CellTiterGlo viability assay, initial screening; conditions: Homo sapiens, read-out: IC50 (relative IC50)
Procedure, shortened: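 Cells were treated in duplicate for 72 hr under standard growth conditions with a 9-point, 3.16-fold compound titration (lowest final 19.9 nM, 0.5% DMSO final). Viability was then read by CellTiter-Glo.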

[2] = system: KG1a cells; test: Annexin V/propidium iodide in vitro apoptosis assay (LD50); conditions: 72 h
Description: The KG1a cell line was maintained in RPMI medium (Invitrogen, Paisley, UK) supplemented with 100 units/ml penicillin, 100 μg/ml streptomycin and 20% foetal calf serum. Cells were subsequently aliquoted (10^5 cells/100 μl) into 96-well plates and were incubated at 37° C. in a humidified 5% carbon dioxide atmosphere for 72 h in the presence of nucleoside analogues and their respective proTides at concentrations that were experimentally determined for each series of compounds. In addition, control cultures were carried out to which no drug was added. Cells were subsequently harvested by centrifugation and were analyzed by flow cytometry using the Annexin V assay.
Cultured cells were harvested by centrifugation and then resuspended in 195 μl of calcium-rich buffer. Subsequently, 5 μl of Annexin V (Caltag Medsystems, Botolph Claydon, UK) was added to the cell suspension and cells were incubated in the dark for 10 mins prior to washing. Cells were finally resuspended in 190 μl of calcium-rich buffer together with 10 μl of propidium iodide. Apoptosis was assessed by dual-colour immunofluorescent flow cytometry as described previously.
The data obtained in these experiments were evaluated using one way ANOVA. […] LD50 values were calculated from the non-linear regression and line of best-fit analysis of the sigmoidal dose-response curves. […]

[3] = system: leukaemic stem cell (LSC) compartment within the KG1a cell line; test: Immunophenotypic identification of the leukaemic stem cell compartment; conditions: 72 h
Description: KG1a cells were cultured for 72 h in the presence of a wide range of concentrations of each compound assayed. Cells were then harvested and labelled with a cocktail of anti-lineage antibodies (PE-cy7), anti-CD34 (FITC), anti-CD38 (PE) and anti-CD123 (PERCP cy5). The sub-population expressing a LSC phenotype were subsequently identified and were expressed as a percentage of all viable cells left in the culture. The percentages of stem cells remaining were then plotted on a dose-response graph and the effects of the compounds were compared with each other, and with the parent nucleoside.
The data obtained in these experiments were evaluated using one way ANOVA. All data was confirmed as Gaussian or a Gaussian approximation using the omnibus K2 test. LD50 values were calculated from the non-linear regression and line of best-fit analysis of the sigmoidal dose-response curves. All statistical analyses were performed using Graphpad Prism 6.0 software (Graphpad Software Inc., San Diego, Calif.).

Row | Structure (SMILES) | IC50 ([1]; 72 h) [µM] | further results
1 | C[C@H](NP(=O)(OC[C@@H]1C[C@@H](O)[C@H](n2cnc3c(N)ncnc32)O1)Oc1cccc2ccccc12)C(=O)OCc1ccccc1 (stereo partly drawn) [B, (2S)-benzyl 2-(((((2S,4R,5R)-5-(6-amino-9H-purin-9-yl)-4-hydroxytetrahydrofuran-2-yl)methoxy)(naphthalen-1-yloxy)phosphoryl)amino)propanoate] | 0.1 to 5 | 
2 | Nc1ncnc2c1ncn2[C@@H]1O[C@H](COP(=O)(NCC(=O)OCc2ccccc2)Oc2ccccc2)C[C@H]1O (stereo partly drawn) [C, Benzyl 2-(((((2S,4R,5R)-5-(6-amino-9H-purin-9-yl)-4-hydroxytetrahydrofuran-2-yl)methoxy)(phenoxy)phosphoryl)amino)acetate] | 5 to 15 | 
3 | C[C@H](NP(=O)(OC[C@@H]1CC(O)[C@H](n2cnc3c(N)ncnc32)O1)Oc1ccccc1)C(=O)OCc1ccccc1 (stereo partly drawn) [Compound A, 3′-deoxyadenosine-5′-O-[phenyl(benzyloxy-L-alaninyl)] phosphate] | 0.1 to 5 | in vitro drug sensitivity / potency (LD50 comparison, FIG. 1) [2]: increased in vitro potency when compared to Cordycepin; reduction of LSCs as a proportion of the cancer cells in culture (ability to target LSCs) ([3]; Lin−/CD34+/CD38−/CD123+): preferentially target cancer stem cells; LSC targeting compared with the parent nucleoside ([3]; for compound A at 1 mM and above): significantly greater than that of the parent compound
4 | Nc1ncnc2c1ncn2[C@@H]1O[C@H](CO)C[C@H]1O [Cordycepin, 3′-deoxyadenosine, reference compound] |  | IC50 ([1]; 72 hr): 15 to 100 µM
5 | COC(=O)C(C)(C)NP(=O)(OC[C@@H]1C[C@@H](O)[C@H](n2cnc3c(N)ncnc32)O1)Oc1cccc2ccccc12 (stereo partly drawn) [E, Methyl 2-(((((2S,4R,5R)-5-(6-amino-9H-purin-9-yl)-4-hydroxytetrahydrofuran-2-yl)-methoxy)(naphthalen-1-yloxy)phosphoryl)amino)-2-methylpropanoate] | 15 to 100 | 
